Measured values taken from publication PMC6593727 (Clinical Pharmacology in Drug Development, 2019).
Like-named read-outs stand apart in the source and are kept apart here.

Key:
[1] = biological target: CYP3A4 (Homo sapiens, UniProt P08684); conditions: for AUC(0-inf): AUCinf; for Tmax: tmax (median [min‐max]); for half-life: t½
[2] = biological target: T1, CYP2C19 (Homo sapiens, UniProt P33261); conditions: for AUC(0-inf): AUCinf; for half-life: t½
[3] = biological target: CYP2D6 (Homo sapiens, UniProt P10635); conditions: for AUC(0-inf) / Cmax / Tmax / half-life: female, human, plasma, oral; for AUC(0-inf): AUCinf; for Tmax: tmax (median [min‐max]); for half-life: t½
[4] = biological target: CYP2C9 (Homo sapiens, UniProt P11712); experiment: Inje cocktail DDI study: losartan and EXP‐3174 PK, assessment of CYP2C9 activity; conditions: for AUC(0-inf) / Cmax / Tmax / half-life: female, human, plasma, oral; for AUC(0-inf): AUCinf; for Tmax: tmax (median [min‐max]); for half-life: t½
[5] = biological target: T1, CYP2C19; conditions: single oral 20 mg omeprazole with 100 mg ASP8477 vs alone, female subjects; ref first‐in‐human study (8477‐CL‐0001); cited from earlier work
[6] = cocktail alone (day 1), mean ± SD
[7] = + 20 mg ASP8477 once daily (day 7), mean ± SD
[8] = probe dextromethorphan, + 60 mg ASP8477 once daily (day 14), mean ± SD
[9] = probe dextromethorphan, + 100 mg ASP8477 once daily (day 23), mean ± SD
[10] = probe dextromethorphan, + 20 mg ASP8477 once daily (day 7)
[11] = probe dextromethorphan, + 60 mg ASP8477 once daily (day 14)
[12] = probe dextromethorphan, + 100 mg ASP8477 once daily (day 23)
[13] = probe dextromethorphan, + 20 mg ASP8477 once daily (day 7), mean ± SD
[14] = + 60 mg ASP8477 once daily (day 14), mean ± SD
[15] = + 100 mg ASP8477 once daily (day 23), mean ± SD
[16] = + 20 mg ASP8477 once daily (day 7)
[17] = + 60 mg ASP8477 once daily (day 14)
[18] = + 100 mg ASP8477 once daily (day 23)
[19] = female, human, plasma, oral, probe midazolam, + 20 mg ASP8477 once daily (day 7), mean ± SD
[20] = female, human, plasma, oral, probe midazolam, + 60 mg ASP8477 once daily (day 14), mean ± SD
[21] = female, human, plasma, oral, probe midazolam, + 100 mg ASP8477 once daily (day 23), mean ± SD
[22] = female, human, plasma, oral, + 20 mg ASP8477 once daily (day 7), mean ± SD
[23] = female, human, plasma, oral, + 60 mg ASP8477 once daily (day 14), mean ± SD
[24] = female, human, plasma, oral, cocktail alone (day 1), mean ± SD

Chain of CYP2D6 (P10635 whole entry): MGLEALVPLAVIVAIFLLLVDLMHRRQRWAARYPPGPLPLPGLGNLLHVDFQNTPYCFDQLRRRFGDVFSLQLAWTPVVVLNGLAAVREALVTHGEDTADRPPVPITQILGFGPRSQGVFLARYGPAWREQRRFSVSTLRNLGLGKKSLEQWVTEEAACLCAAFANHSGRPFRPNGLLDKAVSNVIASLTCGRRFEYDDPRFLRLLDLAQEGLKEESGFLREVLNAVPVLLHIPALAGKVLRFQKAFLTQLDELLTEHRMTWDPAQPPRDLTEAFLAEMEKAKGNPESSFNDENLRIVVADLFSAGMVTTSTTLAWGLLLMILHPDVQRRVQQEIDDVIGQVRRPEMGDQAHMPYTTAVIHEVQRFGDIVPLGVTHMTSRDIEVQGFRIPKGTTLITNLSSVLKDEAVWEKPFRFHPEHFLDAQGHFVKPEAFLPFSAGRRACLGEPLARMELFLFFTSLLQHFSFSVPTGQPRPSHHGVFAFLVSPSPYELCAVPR
T1 sequence (P33261 whole entry): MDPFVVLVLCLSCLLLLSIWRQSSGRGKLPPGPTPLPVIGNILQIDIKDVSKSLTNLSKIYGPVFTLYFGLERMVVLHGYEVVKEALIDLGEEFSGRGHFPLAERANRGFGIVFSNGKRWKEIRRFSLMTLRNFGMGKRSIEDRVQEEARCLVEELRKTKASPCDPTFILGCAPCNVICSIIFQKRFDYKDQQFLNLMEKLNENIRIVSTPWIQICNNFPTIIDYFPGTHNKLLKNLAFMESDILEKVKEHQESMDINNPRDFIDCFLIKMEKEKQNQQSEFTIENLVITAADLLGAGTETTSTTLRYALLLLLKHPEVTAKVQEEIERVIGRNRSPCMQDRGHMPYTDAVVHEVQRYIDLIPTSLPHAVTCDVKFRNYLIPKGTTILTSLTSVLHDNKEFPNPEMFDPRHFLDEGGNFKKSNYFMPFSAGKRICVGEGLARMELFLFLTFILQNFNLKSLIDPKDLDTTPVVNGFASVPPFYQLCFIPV
Chain of CYP3A4 (P08684 whole entry): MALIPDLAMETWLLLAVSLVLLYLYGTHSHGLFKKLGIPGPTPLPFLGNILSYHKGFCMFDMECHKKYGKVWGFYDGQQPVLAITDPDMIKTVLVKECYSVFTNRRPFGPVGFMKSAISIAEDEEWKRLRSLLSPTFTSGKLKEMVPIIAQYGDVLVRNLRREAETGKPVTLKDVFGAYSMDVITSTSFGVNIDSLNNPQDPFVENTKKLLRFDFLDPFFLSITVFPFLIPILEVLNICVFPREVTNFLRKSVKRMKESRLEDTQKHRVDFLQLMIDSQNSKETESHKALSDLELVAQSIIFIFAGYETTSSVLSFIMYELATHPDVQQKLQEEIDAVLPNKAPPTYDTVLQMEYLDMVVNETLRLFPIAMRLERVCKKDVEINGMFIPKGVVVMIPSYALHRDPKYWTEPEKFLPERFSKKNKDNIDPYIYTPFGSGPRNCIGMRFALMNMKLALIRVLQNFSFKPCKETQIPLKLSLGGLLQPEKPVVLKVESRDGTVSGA
Chain of CYP2C9 (P11712 whole entry): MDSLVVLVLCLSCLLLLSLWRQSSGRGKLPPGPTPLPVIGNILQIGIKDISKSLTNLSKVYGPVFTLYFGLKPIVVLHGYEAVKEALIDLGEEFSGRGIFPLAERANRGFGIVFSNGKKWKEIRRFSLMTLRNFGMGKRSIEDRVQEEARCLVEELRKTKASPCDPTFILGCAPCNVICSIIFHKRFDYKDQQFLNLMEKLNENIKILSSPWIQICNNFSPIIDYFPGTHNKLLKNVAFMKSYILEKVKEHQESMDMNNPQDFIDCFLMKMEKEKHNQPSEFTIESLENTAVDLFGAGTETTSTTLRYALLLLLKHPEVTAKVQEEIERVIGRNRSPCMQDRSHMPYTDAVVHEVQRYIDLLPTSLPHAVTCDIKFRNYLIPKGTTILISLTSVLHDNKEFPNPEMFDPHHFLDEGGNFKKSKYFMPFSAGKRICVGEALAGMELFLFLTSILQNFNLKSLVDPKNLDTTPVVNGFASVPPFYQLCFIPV

SMILES: OCc1ncc2n1-c1ccc(Cl)cc1C(c1ccccc1F)=NC2 [1‐OH‐Midazolam, 1‐hydroxymidazolam]
- tmax (median [min‐max]) ([1]; cocktail alone (day 1)): 0.52 (0.48‐1.0) h
- AUCinf [1, 6]: 12 ± 6.1 ng·h/mL
- Cmax [1, 6]: 5.5 ± 3.0 ng/mL
- t½ [1, 6]: 7.8 ± 13 h

SMILES: COc1ccc2nc([S+]([O-])Cc3ncc(CO)c(OC)c3C)[nH]c2c1 (stereo not drawn) [5‐OH‐Omeprazole, 5‐hydroxyomeprazole]
- tmax (median [min‐max]) ([2]; cocktail alone (day 1)): 2.0 (0.98‐4.0) h
- AUCinf [2, 6]: 550 ± 130 ng·h/mL
- Cmax [2, 6]: 230 ± 76 ng/mL
- t½ [2, 6]: 1.4 ± 0.56 h

SMILES: COc1ccc2c(c1)[C@]13CCCC[C@@H]1[C@H](C2)N(C)CC3 [Dextromethorphan, dextromethorphan, reference compound]
- CL/F [3, 6]: 4000 ± 3200 L/h
- AUC(0-inf) [3, 7]: 16 ± 12 ng·h/mL
- AUC(0-inf) [3, 6]: 12 ± 7.9 ng·h/mL
- Cmax [3, 7]: 1.8 ± 1.2 ng/mL
- Cmax [3, 6]: 1.3 ± 0.72 ng/mL
- AUC(0-inf) [3, 8]: 39 ± 25 ng·h/mL
- AUC(0-inf) [3, 9]: 65 ± 44 ng·h/mL
- Cmax [3, 8]: 3.8 ± 2.3 ng/mL
- Cmax [3, 9]: 5.6 ± 3.1 ng/mL
- Tmax [3, 10]: 3 h
- Tmax [3, 11]: 3.1 h
- Tmax [3, 12]: 3 h
- half-life [3, 13]: 7.7 ± 2.1 h
- half-life [3, 8]: 9.3 ± 1.4 h
- half-life [3, 9]: 9.9 ± 1.5 h
- Tmax ([3]; cocktail alone (day 1)): 2 h
- half-life [3, 6]: 8 ± 2.5 h

SMILES: CN1CC[C@@]23CCCC[C@@H]2[C@@H]1Cc1ccc(O)cc13 [Dextrorphan, dextrorphan]
- AUC(0-inf) [3, 7]: 2400 ± 420 ng·h/mL
- AUC(0-inf) [3, 6]: 2400 ± 450 ng·h/mL
- Cmax [3, 7]: 470 ± 110 ng/mL
- Cmax [3, 6]: 490 ± 133 ng/mL
- AUC(0-inf) [3, 8]: 2700 ± 510 ng·h/mL
- AUC(0-inf) [3, 9]: 3000 ± 520 ng·h/mL
- Cmax [3, 8]: 430 ± 110 ng/mL
- Cmax [3, 9]: 400 ± 100 ng/mL
- Tmax [3, 10]: 2 h
- Tmax [3, 11]: 3.1 h
- Tmax [3, 12]: 3 h
- half-life [3, 13]: 6.5 ± 1.7 h
- half-life [3, 8]: 8.8 ± 2.1 h
- half-life [3, 9]: 9.9 ± 2.4 h
- Tmax ([3]; cocktail alone (day 1)): 2 h
- half-life [3, 6]: 5.8 ± 1.2 h

SMILES: CCCCc1nc(Cl)c(C(=O)O)n1Cc1ccc(-c2ccccc2-c2nn[nH]n2)cc1 [EXP‐3174, losartan acid]
- AUC(0-inf) [4, 7]: 1100 ± 280 ng·h/mL
- AUC(0-inf) [4, 14]: 960 ± 240 ng·h/mL
- AUC(0-inf) [4, 15]: 780 ± 250 ng·h/mL
- AUC(0-inf) [4, 6]: 1100 ± 370 ng·h/mL
- Cmax [4, 7]: 96 ± 48 ng/mL
- Cmax [4, 14]: 54 ± 26 ng/mL
- Cmax [4, 15]: 35 ± 19 ng/mL
- Cmax [4, 6]: 100 ± 65 ng/mL
- Tmax [4, 16]: 5 h
- Tmax [4, 17]: 8 h
- Tmax [4, 18]: 8.1 h
- Tmax ([4]; cocktail alone (day 1)): 4 h
- half-life [4, 7]: 8.8 ± 3.5 h
- half-life [4, 14]: 13 ± 3.7 h
- half-life [4, 15]: 12 ± 2.5 h
- half-life [4, 6]: 8 ± 0.64 h

SMILES: CCCCc1nc(Cl)c(CO)n1Cc1ccc(-c2ccccc2-c2nn[nH]n2)cc1 [Losartan, losartan, reference compound]
- CL/F [4, 6]: 140 ± 61 L/h
- AUC(0-inf) [4, 7]: 230 ± 100 ng·h/mL
- AUC(0-inf) [4, 14]: 320 ± 140 ng·h/mL
- AUC(0-inf) [4, 15]: 410 ± 180 ng·h/mL
- AUC(0-inf) [4, 6]: 220 ± 100 ng·h/mL
- Cmax [4, 7]: 78 ± 37 ng/mL
- Cmax [4, 14]: 81 ± 59 ng/mL
- Cmax [4, 15]: 80 ± 64 ng/mL
- Cmax [4, 6]: 64 ± 33 ng/mL
- Tmax [4, 16]: 0.52 h
- Tmax [4, 17]: 0.52 h
- Tmax [4, 18]: 0.5 h
- Tmax ([4]; cocktail alone (day 1)): 1 h
- half-life [4, 7]: 4 ± 2.2 h
- half-life [4, 14]: 5 ± 2.2 h
- half-life [4, 15]: 7.6 ± 3.3 h
- half-life [4, 6]: 3.7 ± 2.5 h

SMILES: Cc1ncc2n1-c1ccc(Cl)cc1C(c1ccccc1F)=NC2 [Midazolam, midazolam]
- CL/F [1, 6]: 66 ± 15 L/h
- AUC(0-inf) [1, 19]: 38 ± 11 ng·h/mL
- AUC(0-inf) [1, 20]: 49 ± 15 ng·h/mL
- AUC(0-inf) [1, 21]: 51 ± 15 ng·h/mL
- Cmax ([1]; female, human, plasma, oral, probe midazolam, Cmax, + 20 mg ASP8477 once daily (day 7), mean ± SD): 16 ± 5.7 ng/mL
- Cmax ([1]; female, human, plasma, oral, probe midazolam, Cmax, + 60 mg ASP8477 once daily (day 14), mean ± SD): 20 ± 5.1 ng/mL
- Cmax ([1]; female, human, plasma, oral, probe midazolam, Cmax, + 100 mg ASP8477 once daily (day 23), mean ± SD): 21 ± 5.1 ng/mL
- Tmax ([1]; female, human, plasma, oral, probe midazolam, + 20 mg ASP8477 once daily (day 7)): 0.52 h
- Tmax ([1]; female, human, plasma, oral, probe midazolam, + 60 mg ASP8477 once daily (day 14)): 0.52 h
- Tmax ([1]; female, human, plasma, oral, probe midazolam, + 100 mg ASP8477 once daily (day 23)): 0.5 h
- Tmax ([1]; female, human, plasma, oral, probe midazolam, cocktail alone (day 1)): 0.52 h
- half-life [1, 19]: 5 ± 0.93 h
- half-life [1, 20]: 5.1 ± 0.95 h
- half-life [1, 21]: 5.1 ± 1.2 h

SMILES: COc1ccc2[nH]c([S+]([O-])Cc3ncc(C)c(OC)c3C)nc2c1 (stereo not drawn) [Omeprazole, omeprazole]
- CL/F [2, 6]: 40 ± 20 L/h
- AUC(0-inf) [2, 22]: 1200 ± 520 ng·h/mL
- AUC(0-inf) [2, 23]: 2500 ± 680 ng·h/mL
- AUC(0-inf) ([2]; female, human, plasma, oral, + 100 mg ASP8477 once daily (day 23), mean ± SD): 3300 ± 1100 ng·h/mL
- AUC(0-inf) [2, 24]: 630 ± 300 ng·h/mL
- Cmax ([2]; female, human, plasma, oral, Cmax, + 20 mg ASP8477 once daily (day 7), mean ± SD): 640 ± 190 ng/mL
- Cmax ([2]; female, human, plasma, oral, Cmax, + 60 mg ASP8477 once daily (day 14), mean ± SD): 910 ± 260 ng/mL
- Cmax ([2]; female, human, plasma, oral, Cmax, + 100 mg ASP8477 once daily (day 23), mean ± SD): 1100 ± 250 ng/mL
- Cmax ([2]; female, human, plasma, oral, Cmax, cocktail alone (day 1), mean ± SD): 320 ± 150 ng/mL
- half-life [2, 22]: 0.77 ± 0.2 h
- half-life [2, 23]: 1.1 ± 0.25 h
- half-life [2, 24]: 0.79 ± 0.17 h
- increase of omeprazole AUCinf [5]: 7 fold
- increase of omeprazole Cmax [5]: 3.5 fold
